# Measured values: article PMC5356695, “A phase 1 study of oral ridaforolimus in pediatric patients with advanced solid tumors” (Oncotarget, 2016)
# Where two headings read alike, the source gives them in different places.
# Experiments:
# [1] = tested on: adults with advanced solid tumors; conditions: cited from earlier work
# [2] = tested on: advanced soft tissue and bone sarcomas; conditions: cited from earlier work
# [3] = tested on: heavily pretreated solid tumors; design: method as in PMID 23659969; conditions: cited from earlier work
# advanced solid tumors = experiment: Antitumor activity, investigator assessment by RECIST v1.1; format: in vivo, human
# Procedure: All patients were to have computed tomography or magnetic resonance imaging scans at baseline, every 2 cycles during treatment, and at the time of treatment discontinuation. Local investigator assessment of treatment response was performed using RECIST v1.1 [43].
# [4] = 7 pediatric patients aged 13 to 17 years
# [5] = 1 patient with pineoblastoma, 22 mg/m^2
structure (smiles),measurement,setting,value
CO[C@H]1C[C@@H]2CC[C@@H](C)[C@@](O)(O2)C(=O)C(=O)N2CCCC[C@H]2C(=O)O[C@H]([C@H](C)C[C@@H]2CC[C@@H](OP(C)(C)=O)[C@H](OC)C2)CC(=O)[C@H](C)/C=C(\C)[C@@H](O)[C@@H](OC)C(=O)[C@H](C)C[C@H](C)/C=C/C=C/C=C/1C [ridaforolimus],MTD,[1]; intravenous,18.75 mg/day
same,Adult RP2D,"[1]; oral, once daily for 5 days per week",40 mg
same,MTD,"[1]; oral, once daily × 5 days per week regimen",40 mg
same,Patients with partial response,[2]; [4],1
same,Patients with progressive disease,[2]; [4],2
same,Patients with stable disease,[2]; [4],4
same,Reduction of risk of progression or death compared with placebo,"[2]; oral, after benefit from preceding chemotherapy",28%
same,Stable disease in patients with central nervous system tumors,[3]; intravenous 8-16 mg/m^2,4 of 6
same,Stable disease in patients with sarcomas,[3]; intravenous 8-16 mg/m^2,2 of 8
same,Patients with stable disease / clinical benefit,"[3]; intravenous 8-16 mg/m^2 daily for 5 consecutive days every other week, of 15 evaluable (40%)",6 patients
same,DLTs,[3]; intravenous 8–16 mg/m^2 daily for 5 consecutive days every other week,no DLTs were observed
same,Patients discontinued due to progressive disease,"advanced solid tumors; 33 mg/m^2 (n = 13), 77%",10 patients
same,Progression-free survival,advanced solid tumors; 1 patient with diffuse intrinsic pontine glioma,> 42 months
same,Duration of stable disease,"advanced solid tumors; 1 patient with diffuse intrinsic pontine glioma, 33 mg/m^2, as of January 2016",46 cycles
same,Duration of stable disease,advanced solid tumors; [5],12 cycles
same,Progression-free survival,advanced solid tumors; [5],12.8 months
same,Partial or complete response,"advanced solid tumors; all patients, N = 20",None of the patients had a partial or complete response
same,Patients with evidence of clinical benefit,advanced solid tumors; of the 20 treated pediatric patients (10%),2 patients
